In US10829448B2, “Substituted benzoimidazoles as modulators of ROR-γ” (Vitae Pharmaceuticals, LLC, priority 2015, dated 2020) one finds Ki and IC50 data, which are given here for 6 molecules.

Test [1] addresses recombinant RORγ Ligand Binding Domain (LBD) protein (Homo sapiens (Human), UniProt P51449). Description: Radio-Ligand RORγ Binding Assay (Assay 1). Particulars: competition with 25-hydroxy [26,27-3H]-cholesterol, SPA. How it is done:
Radio-Ligand RORγ Binding Assay (Assay 1)
Compounds described herein were tested for ability to bind to RORγ in a cell-free competition assay with commercially available radio-ligand (RL), 25-hydroxy [26,27-^3H]-cholesterol (PerkinElmer, Cat. # NET674250UC), for a ligand binding site on a recombinant RORγ Ligand Binding Domain (LBD) protein expressed as a 6×His-Glutathione-S-Transferase (GST) fusion. […] The plate was shaken at 700 rpm for 20 min and incubated for 10 min at rt, after which 40 μL of poly-Lys YSi SPA beads (PerkinElmer, Cat. # RPNQ0010) were added to achieve 50 μg of the beads per well. The plate was incubated on an orbital shaker for 20 min and then for 10 min without agitation at rt. SPA signal for tritium beta radiation was registered on PerkinElmer Microbeta plate reader. […] The percent inhibition vs. concentration data were fit into a four-parameter model, and IC50 values were calculated from the fit as the concentrations corresponding to the inflection points on the dose-response curves.

Test [2] concerns the target full-length RORγt in Jurkat cells (Homo sapiens (Human), UniProt P51449). Description: RORγt 5×RORE Assay in Jurkat Cells (Assay 2). Particulars: RORγt 5×RORE Nanoluc luciferase reporter. It is filed as cell-based. As for the experimental part:
[formula] RORγt 5×RORE Assay in Jurkat Cells (Assay 2)
Compounds described herein were tested for RORγ inverse agonist activity in a cell-based, transcriptional activity assay. […] (Promega, Cat. # N1021) using KpnI and HindIII restriction sites. […] Tested compounds were added to the cells in the same media (final concentration of DMSO was 0.1% (v/v)), and the plates were incubated at 37° C./5% CO2 for 16-18 hrs. Luciferase activity in the conditioned supernatants was determined with NanoGlo® assay reagents (Promega, Cat. # N1130).

Each structure is given as a SMILES string.

Chain of full-length RORγt in Jurkat cells (P51449 other isoform, or with tags, fused parts or gaps): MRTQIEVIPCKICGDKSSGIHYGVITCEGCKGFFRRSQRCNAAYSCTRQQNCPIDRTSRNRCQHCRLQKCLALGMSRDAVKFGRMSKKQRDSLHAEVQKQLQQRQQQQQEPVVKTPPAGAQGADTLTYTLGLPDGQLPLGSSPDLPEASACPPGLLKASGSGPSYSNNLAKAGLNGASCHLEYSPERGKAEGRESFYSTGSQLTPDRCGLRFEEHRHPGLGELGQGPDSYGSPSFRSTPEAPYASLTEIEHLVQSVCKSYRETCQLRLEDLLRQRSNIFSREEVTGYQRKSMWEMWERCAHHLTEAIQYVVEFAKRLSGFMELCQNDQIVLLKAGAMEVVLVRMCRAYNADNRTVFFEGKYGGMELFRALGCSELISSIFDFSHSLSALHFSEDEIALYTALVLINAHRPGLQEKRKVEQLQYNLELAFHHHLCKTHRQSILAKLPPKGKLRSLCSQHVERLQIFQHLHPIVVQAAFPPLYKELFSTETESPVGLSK
Chain of recombinant RORγ Ligand Binding Domain (LBD) protein (P51449 269-508): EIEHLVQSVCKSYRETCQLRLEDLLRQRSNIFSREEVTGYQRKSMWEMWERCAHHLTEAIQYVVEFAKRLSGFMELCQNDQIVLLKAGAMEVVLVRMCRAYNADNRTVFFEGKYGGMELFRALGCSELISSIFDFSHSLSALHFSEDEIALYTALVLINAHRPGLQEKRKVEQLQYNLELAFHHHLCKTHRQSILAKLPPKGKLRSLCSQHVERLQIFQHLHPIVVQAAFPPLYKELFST

What is called Ki is a measure of affinity in units of concentration, obtained from inhibition or displacement. One may read the IC50 as the point on the concentration scale where inhibition reaches its midpoint. A high value points to a need for much substance. As for `CCS(=O)(=O)c1ccc([C@@H](COC(N)=O)NC(=O)c2ccc3c(c2)nc(C[C@H]2CC[C@H](C(F)(F)F)CC2)n3C2CC2)cc1` [BE-67, (S)-2-(1-cyclopropyl-2-(((1r,4S)-4-(trifluoromethyl)cyclohexyl)methyl)-1H-benzo[d]imidazole-5-carboxamido)-2-(4-(ethylsulfonyl)phenyl)ethyl carbamate], the Ki in test [1] is below 100 nM. For the same molecule, the IC50 in test [2] is below 100 nM.
Turning to `CCn1c(C[C@H]2CC[C@@H](C(F)(F)F)CC2)cc2cc(C(=O)NCc3ccc(S(=O)(=O)CC)cc3)ccc21` [IN-17.2, 1-ethyl-N-(4-(ethylsulfonyl)benzyl)-2-(((1s,4s)-4-(trifluoromethyl)cyclohexyl)methyl)-1H-indole-5-carboxamide], the inhibition constant Ki in test [1] was below 100 nM. Further, the IC50 in test [2] is above 1000 nM.
Taken in the same sequence, the figures for `CCS(=O)(=O)c1ccc([C@H](COC(N)=O)NC(=O)c2ccc3c(c2)nc(C[C@H]2CC[C@H](C(F)(F)F)CC2)n3C2CC2)cc1` [BE-66, (R)-2-(1-cyclopropyl-2-(((1r,4R)-4-(trifluoromethyl)cyclohexyl)methyl)-1H-benzo[d]imidazole-5-carboxamido)-2-(4-(ethylsulfonyl)phenyl)ethyl carbamate] were below 100 nM and below 100 nM.
Consider `CCS(=O)(=O)c1ccc([C@H](CO)NC(=O)c2ccc3c(c2)nc(C(=O)c2ccc(C(F)(F)F)cc2)n3C2CC2)cc1` [BE-61, (R)-1-cyclopropyl-N-(1-(4-(ethylsulfonyl)phenyl)-2-hydroxyethyl)-2-(4-(trifluoromethyl)benzoyl)-1H-benzo[d]imidazole-5-carboxamide], for which, in test [1], the Ki is below 100 nM. Also, the IC50 in test [2] is below 100 nM.
Consider `CCn1c(C[C@H]2CC[C@@H](C(F)(F)F)CC2)cc2cc(C(=O)N[C@@H](CO)c3ccc(S(=O)(=O)CC)cc3)ccc21` [IN-16.2, 1-ethyl-N-((R)-1-(4-(ethylsulfonyl)phenyl)-2-hydroxyethyl)-2-(((1s,4S)-4-(trifluoromethyl)cyclohexyl)methyl)-1H-indole-5-carboxamide], for which the Ki in test [1] was below 100 nM. Also, the IC50 in test [2] was above 1000 nM.
On to `CCn1c(C[C@H]2CC[C@@H](C(F)(F)F)CC2)cc2cc(C(=O)NCc3ccc(S(=O)(=O)CC)cn3)ccc21` [IN-15.2, 1-ethyl-N-((5-(ethylsulfonyl)pyridin-2-yl)methyl)-2-(((1s,4s)-4-(trifluoromethyl)cyclohexyl)methyl)-1H-indole-5-carboxamide], for which the Ki in test [1] was below 100 nM. Also, the IC50 in test [2] is above 1000 nM.
